According to ChEMBL document CHEMBL1149518, “High affinity inhibitors of the dopamine transporter (DAT): novel biotinylated ligands for conjugation to quantum dots” (Bioorg Med Chem Lett, 2006):

Target: Sodium-dependent dopamine transporter (Homo sapiens, UniProt Q01959)
Assay: Inhibition of [3H]dopamine uptake at dopamine transporter

Chain of Sodium-dependent dopamine transporter (Q01959 whole entry): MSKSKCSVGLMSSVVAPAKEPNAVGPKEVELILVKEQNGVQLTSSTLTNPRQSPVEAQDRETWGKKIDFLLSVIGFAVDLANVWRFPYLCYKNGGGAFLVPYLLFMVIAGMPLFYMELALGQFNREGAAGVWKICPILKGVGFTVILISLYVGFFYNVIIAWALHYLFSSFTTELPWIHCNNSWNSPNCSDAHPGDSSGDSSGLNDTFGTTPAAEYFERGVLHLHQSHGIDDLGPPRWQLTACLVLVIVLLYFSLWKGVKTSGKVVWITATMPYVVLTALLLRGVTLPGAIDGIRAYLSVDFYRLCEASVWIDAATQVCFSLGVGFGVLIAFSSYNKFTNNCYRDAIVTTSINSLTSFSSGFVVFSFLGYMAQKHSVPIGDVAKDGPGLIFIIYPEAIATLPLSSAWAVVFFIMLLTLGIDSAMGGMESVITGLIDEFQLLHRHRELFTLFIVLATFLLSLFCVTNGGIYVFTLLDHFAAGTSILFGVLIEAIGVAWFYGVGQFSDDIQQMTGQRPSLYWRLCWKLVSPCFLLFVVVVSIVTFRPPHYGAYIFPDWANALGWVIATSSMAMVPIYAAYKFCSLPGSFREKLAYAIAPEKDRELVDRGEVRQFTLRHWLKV

| Structure (SMILES) | IC50 |
| --- | --- |
| O=C(CCCCCCCCCCS)Nc1ccc(CCCN2CCN(CCOC(c3ccc(F)cc3)c3ccc(F)cc3)CC2)cc1 | 18 nM |
| O=C(CCCCCCCCCCS)Nc1ccc(CCCN2CCN(CCOC(c3ccccc3)c3ccccc3)CC2)cc1 | 10 nM |
